We go through two compounds from article PMC8476831, “Pharmacological Characterization of Toludesvenlafaxine as a Triple Reuptake Inhibitor” (Frontiers in Pharmacology, 2021).

Read-outs that look alike come from different tables or passages of the source. Marks after values point to notes of the source that are not given here.

Data set [1] in a line: Blood, brain and hypothalamus distribution after single intragastric dose. To be noted: rats, toludesvenlafaxine 8 mg/kg intragastric. It is filed as in vivo, Wistar rats.
Experimental: Total brain and hypothalamus distribution study was conducted in Wistar rats (4/sex/group) following a single intragastric dose at 8 mg/kg. […] All tissues were immediately rinsed with 200 μg/ml dichlorovos (as esterase inhibitor) ice-cold saline after collection and then were stored at −80°C until analysis using LC-MS/MS.
A further data set relates to striatum. Also on record: method as in Zhang et al., 2014. As to conditions: ref Zhang et al., 2014; cited from earlier work.
For a further data set, the system named is CUMS rats. Kind of data set: Chronic unpredictable mild stress (CUMS) model: open field test and sucrose consumption. To be noted: 7.3 mg/kg oral once daily 21 days.
Data set [2] deals with olfactory bulbectomized rats. Kind of data set: Olfactory bulbectomized model: open field test, sucrose consumption, serum corticosterone and testosterone.
Experimental: Thereafter, all rats received daily intragastric dosing for 20 days. The open field test on the 7th and 14th days of dosing, sucrose consumption on the 18th day of dosing, and serum levels of corticosterone and testosterone on the 20th day of dosing were determined.
(§1) Locomotor activity was measured in custom-made acrylic boxes (Height✕Width✕Length: 40✕52✕52 cm). The boxes were placed underneath cameras and all sessions (the duration of the sessions was 5 min) were recorded and data were later quantified by experimenters blinded to treatments. The bottom surface of the boxes was divided into 16 equal squares. Two parameters were quantified from the sessions: the number of squares each rat crossed with both front paws and the number of rearing episodes. Standing with two front paws off the ground was considered one episode of rearing.
(§2) Rats were exposed to 1% sucrose solution in leak-proof bottles for 1 h per day for 3 consecutive days. […] The weight difference of the bottles before and after the 2-h test was considered the total amount of sucrose consumed by the rats.
The serum corticosterone and testosterone levels were measured following the kit instructions.
[3] abbreviates: both sexes, Wistar, rat, blood, oral, read-out: Blood concentration.
[4] abbreviates: both sexes, Wistar, rat, brain, oral, read-out: Brain concentration.
Setting [5] is: both sexes, Wistar, rat, hypothalamus, oral, read-out: Hypothalamus concentration.
[6] abbreviates: 7.3 mg/kg daily, 20th day of dosing.

Text for CUMS rats: Briefly, SD rats were randomly exposed to various stressors for 3 weeks. […] No stressor was repeated within 2 days for each rat. The control group was housed in a separate room, with free access to food and water, and not disturbed.
Rats received oral administration of study drugs once daily for 21 consecutive days during the chronic stress exposure period. At the end of the chronic stress and drug treatment period, the open field test (21st day) and amount of sucrose consumption (22nd day) were determined.
as §1, §2

Regarding `CN(C)CC(c1ccc(O)cc1)C1(O)CCCCC1` (stereo not drawn) [ODV, O-desmethylvenlafaxine], the concentration at 20 min in data set [1] (both sexes, Wistar, rat, blood, oral, 15 min row (footnote: detected at 20 min)) stood at 90.9 ± 33.5 ng/mL. Moreover, the concentration at 1 h was 68.2 ± 23.6 ng/mL in data set [1] (setting [3]), 20.9 ± 6.8 ng/g in data set [1] (setting [4]) and 97.9 ± 58 ng/g in data set [1] (setting [5]). In addition, the concentration at 12 h in data set [1] (setting [3]) is 2.84 ± 2.69 ng/mL; in data set [1] (setting [4]), 2.06 ± 1.29 ng/g; in data set [1] (setting [5]) it was 7.22 ± 6.79 ng/g. Besides, the concentration at 15 min in data set [1] (both sexes, Wistar, rat, brain, oral, 15 min, read-out: Brain concentration) was 13.8 ± 8.4 ng/g; in data set [1] (both sexes, Wistar, rat, hypothalamus, oral, 15 min, read-out: Hypothalamus concentration) it was 92.5 ng/g. In data set [1] (15 min), this compound came in with a Hypothalamus concentration of 92.52 ± 68.23 ng/g. Further, the “striatal DA level” value with striatum is reported as “does not increase”.
As to `CN(C)CC(c1ccc(O)cc1)C1(O)CCCCC1` (stereo not drawn) [DVS, desvenlafaxine succinate monohydrate], in the data set with CUMS rats (day 22), the Sugar consumption rate is on record as 82.1 ± 7.4^d %. Also, in the data set on CUMS rats (open field day 21), the “Numbers of squares crossed” value was 47.0 ± 12.1^e and the Rearing time is on record as 15.2 ± 3.9^d seconds. In data set [2] (7.3 mg/kg daily intragastric), the “Moving distance (squares crossed) Day 7” value is 26.8 ± 7.6 squares crossed, the “Moving distance (squares crossed) Day 14” value was determined as 26.7 ± 10.1 squares crossed, the “Rearing time Day 7” value is recorded as 7.0 ± 3.1^d seconds and the “Rearing time Day 14” value is 9.4 ± 3.1^d seconds. The compound further gave a Sugar consumption rate in data set [2] (7.3 mg/kg daily, 18th day of dosing) of 58.1 ± 26.6%. Moreover, in data set [2] (setting [6]), the “Corticosterone (serum)” value worked out at 394.1 ± 231.6 ng/L and the “Testosterone (serum)” value amounted to 2.4 ± 1.8 ng/mL.
